From US20210038587A1, “METHODS AND COMPOSITIONS FOR TREATING NON-ERK MAPK PATHWAY INHIBITOR-RESISTANT CANCERS” (BIOMED VALLEY DISCOVERIES, INC., priority 2013, published 2021)

What was measured:
[1] = tested on: A375, MIAPaCa-2, HCT116, Colo205, HT-29, and AN3Ca cells; test: Reverse Phase Protein Analysis (RPPA), all six cell lines; assay type: cell-based; conditions: 10 μM, 6 hours
Method: (§1) Control wells were treated with DMSO at 0.1% (v/v) for 6 hours prior to cell lysate generation. Samples were then analyzed using reverse-phase protein microarray technology (Theranostics Health).
(§2) Cell lines with common alterations in BRAF and RAS were assayed: BRAF^V600E mutant lines A375, Colo205, and HT29; KRAS^G12C-mutant cell line MIAPACa-2; KRAS^G13D-mutant cell line HCT116; and AN3Ca with atypical HRAS^F82L mutation. Changes in protein levels are shown as a percentage change from dimethyl sulfoxide (DMSO)-treated parental control (FIG. 32A and Table 23).

[2] = tested on: Colo205; test: Reverse Phase Protein Analysis (RPPA); assay type: cell-based, human; conditions: % change from DMSO (matched cell line)
[3] = tested on: AN3Ca; test: Reverse Phase Protein Analysis (RPPA); assay type: cell-based; conditions: % change from DMSO (matched cell line)
Method: as §1, §2

O=C(Nc1ccc2[nH]nc(-c3ccncc3)c2c1)[C@@H]1CCN(CC(=O)N2CCN(c3ccc(-c4ncccn4)cc3)CC2)C1 [SCH772984]
pERK1/2 (ERK1/2-T202, -Y204) [1]: inhibited pERK1/2 in all cell lines | Avg (4ebp1 T70) [2]: −27.51% | Avg (Akt S473) [2]: −1.74% | Avg (Akt) [2]: −10.31% | Avg (Bad S136) [2]: 1.88% | Avg (Bad S155) [2]: −10.96% | Avg (Bak) [2]: 4.59% | Avg (Bax) [2]: −6.44% | Avg (Bcl 2) [2]: −14.56% | Avg (Bcl2 S70) [2]: −18.52% | Avg (Bcl 2 T56) [2]: −6.73% | Avg (Bim) [2]: 29.22% | Avg (CREB S133) [2]: −14.56% | Avg (Caspase 3 CL D175) [2]: 14.08% | Avg (Caspase 7 Cl D198) [2]: 12.36% | Avg (Chk1) [2]: 7.49% | Avg (Chk1 S345) [2]: 1% | Avg (Cyclin D1) [2]: −36.7% | Avg (ERK 1 2) [2]: −31.87% | Avg (ERK 1 2 T202 Y204) [2]: −91.43% | Avg (MAK1 S360) [2]: 7.54% | Avg (Mcl1) [2]: −0.14% | Avg (Raptor S792) [2]: −4.17% | Avg (Raptor) [2]: −2.2% | Avg (Rictor) [2]: −19.07% | Avg (Stat1) [2]: −4.31% | Avg (Stat3) [2]: −6.1% | Avg (bad S112) [2]: −29.4% | Avg (c Fos) [2]: −15.17% | Avg (c Myc) [2]: −0.64% | Avg (mTOR S2448) [2]: −9.44% | Avg (mTOR S2481) [2]: −6.68% | Avg (mTOR) [2]: −5.62% | Avg (p70 S6 Kinase) [2]: −2.85% | Avg (p90 RSK S380) [2]: −62.31% | Avg(S6 Ribo Prot S235 236) [2]: −94.67% | Avg(S6 Ribo Prot S240 244) [2]: −95.09% | Avg(Tuberin TSC2 Y1571) [2]: −1.38% | Avg(p70 S6 Kinase S371 S394) [2]: −14.59% | Avg(p70 S6 Kinase T389 T412) [2]: −30.4% | Avg (4ebp1 T70) [3]: 61.57% | Avg (Akt S473) [3]: 66.17% | Avg (Akt) [3]: −16.35% | Avg (Bad S136) [3]: 5.26% | Avg (Bad S155) [3]: 12.92% | Avg (Bak) [3]: 9.73% | Avg (Bax) [3]: 0.15% | Avg (Bcl 2) [3]: −5.14% | Avg (Bcl2 S70) [3]: −12.42% | Avg (Bcl 2 T56) [3]: −10.73% | Avg (Bim) [3]: −14.09% | Avg (CREB S133) [3]: 3.64% | Avg (Caspase 3 CL D175) [3]: 1.25% | Avg (Caspase 7 Cl D198) [3]: −24.17% | Avg (Chk1) [3]: 1.35% | Avg (Chk1 S345) [3]: 14.56% | Avg (Cyclin D1) [3]: −11.33% | Avg (ERK 1 2) [3]: −9.27% | Avg (ERK 1 2 T202 Y204) [3]: 19.75% | Avg (MAK1 S360) [3]: −5.02% | Avg (Mcl1) [3]: −7.15% | Avg (Raptor S792) [3]: −4.03% | Avg (Raptor) [3]: −11.09% | Avg (Rictor) [3]: −10.89% | Avg (Stat1) [3]: 5.52% | Avg (Stat3) [3]: −6.01% | Avg (bad S112) [3]: −39.14% | Avg (c Fos) [3]: −9.18% | Avg (c Myc) [3]: 0.88% | Avg (mTOR S2448) [3]: −4.84% | Avg (mTOR S2481) [3]: 11.24% | Avg (mTOR) [3]: −5.33% | Avg (p70 S6 Kinase) [3]: −7.71% | Avg (p90 RSK S380) [3]: −40.26% | Avg(S6 Ribo Prot S235 236) [3]: −61.99% | Avg(S6 Ribo Prot S240 244) [3]: −35.88% | Avg(Tuberin TSC2 Y1571) [3]: 13.44% | Avg(p70 S6 Kinase S371 S394) [3]: 24.56%
